Experimental data as given in ChEMBL document CHEMBL1201862, “PubChem BioAssay data set” (2004).
Values belong to the compound of their own block, whether it stands above or below them. Activity calls are given as the source filed them.

How the values were obtained:
[1] = biological target: E3 ubiquitin-protein ligase UHRF1 (Homo sapiens, UniProt Q96T88); assay: Counterscreen for inhibitors of 5-meCpG-binding domain protein 2 (MBD2): TRFRET-based biochemical high throughput dose response assay to identify inhibitors of binding of ubiquitin-like with PHD and ring finger domains 1 (UHRF1) to methylated oligonucleotide.
HEK293 [2] = assay: cells; settings: Homo sapiens
[3] = Counterscreen for activators of the function of SWI/SNF related, matrix associated, actin dependent regulator of chromatin, subfamily a, member 2 (SMARCA2, BRM): Luminescence-based cell-based high throughput dose response assay to identify non-selective compounds using the VP16 reporter assay.; format: functional
[4] = biological target: T1, DNA repair protein RAD52 homolog (Homo sapiens, UniProt P43351); format: functional, biochemical
T1 sequence (P43351 whole entry): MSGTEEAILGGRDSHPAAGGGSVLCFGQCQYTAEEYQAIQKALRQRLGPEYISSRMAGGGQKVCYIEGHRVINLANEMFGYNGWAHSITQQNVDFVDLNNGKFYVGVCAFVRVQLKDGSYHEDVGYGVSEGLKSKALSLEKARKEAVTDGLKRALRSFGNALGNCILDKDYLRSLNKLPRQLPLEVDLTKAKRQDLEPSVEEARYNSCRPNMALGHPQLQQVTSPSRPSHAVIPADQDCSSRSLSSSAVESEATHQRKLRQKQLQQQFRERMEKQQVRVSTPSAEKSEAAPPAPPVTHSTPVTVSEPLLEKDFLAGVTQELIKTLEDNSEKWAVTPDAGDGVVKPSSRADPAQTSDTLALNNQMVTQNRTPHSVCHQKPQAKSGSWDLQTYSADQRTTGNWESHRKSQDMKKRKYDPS

[5] = biological target: DNA (cytosine-5)-methyltransferase 1 (Homo sapiens, UniProt P26358); assay: inhibition of DNA methylation by DNMT1 – biochemical, fluorescent molecular beacon, confirmation (AID 602386); format: functional
HEK293 [6] = assay: cells; settings: Homo sapiens; remark: listed apart in the source
[7] = biological target: SWI/SNF-related matrix-associated actin-dependent regulator of chromatin subfamily A member 2 (Homo sapiens, UniProt P51531); assay: Luminescence-based cell-based high throughput dose response assay to identify activators of the function of SWI/SNF related, matrix associated, actin dependent regulator of chromatin, subfamily a, member 2 (SMARCA2, BRM).; format: functional
[8] = biological target: Neuropeptide Y receptor type 2 (Homo sapiens, UniProt P49146); assay: Fluorescence-based cell-based high-throughput dose response assay for agonists of NPY-Y2. [Related pubchem assays: 1703 (Screening assay (CNGC inhibitors).), 1359 (Screening assay (NPY-Y2 potentiators or agonists).), 1304 (Screening assay (NPY-Y1 potentiators or agonists).), 1710 (Screening assay (NPY-Y2 agonists).), 1791 (Summary AID.)]; format: functional
HEK293 [9] = assay: Fluorescence-based counterscreen for potentiators or agonists of NPY-Y2: cell-based high-throughput dose response assay to identify inhibitors of cyclic nucleotide gated ion channel (CNGC) activity. In this assay, the parental HEK293 cell line transfected with a cyclic-nucleotide gated ion channel (CNGC)-based cAMP sensor is used to measure inhibition of isoproterenol-induced CNGC activity by test compound.; format: functional; settings: Homo sapiens
[10] = biological target: T2, Beta-2 adrenergic receptor (Homo sapiens, UniProt P07550); assay: Dose response for HTS for Beta-2AR agonists via FAP method from Powderset3.; format: functional
[11] = biological target: T2, Beta-2 adrenergic receptor; assay: ADRB2 activation measured by internalization – cell-based, FAP fluorogen, flow cytometry, cherry pick 1, dose response (AID 588763); format: functional
[12] = biological target: Neuropeptide Y receptor type 1 (Homo sapiens, UniProt P25929); assay: Fluorescence-based counterscreen for agonists of NPY-Y2: cell-based high-throughput dose response assay for agonists of NPY-Y1.; format: functional
[13] = biological target: T3, Corticotropin-releasing factor receptor 2/Corticotropin-releasing factor-binding protein (Homo sapiens, UniProt P24387+Q13324); assay: activators of CRF receptor 2 with binding protein – uHTS hits, confirmation (AID 602473); format: functional; settings: read-out: EC50_Mean
T3 sequence (Q13324 whole entry): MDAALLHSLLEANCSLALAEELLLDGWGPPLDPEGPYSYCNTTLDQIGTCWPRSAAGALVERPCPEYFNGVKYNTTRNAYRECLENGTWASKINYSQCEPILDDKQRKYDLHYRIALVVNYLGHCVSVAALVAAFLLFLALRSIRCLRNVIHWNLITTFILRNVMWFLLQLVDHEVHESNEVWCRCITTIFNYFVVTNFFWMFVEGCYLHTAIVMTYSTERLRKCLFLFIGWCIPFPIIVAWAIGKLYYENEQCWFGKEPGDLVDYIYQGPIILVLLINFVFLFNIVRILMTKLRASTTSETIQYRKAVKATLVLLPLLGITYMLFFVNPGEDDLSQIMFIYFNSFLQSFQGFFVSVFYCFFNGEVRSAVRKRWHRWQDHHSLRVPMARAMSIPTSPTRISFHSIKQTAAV
T3 sequence (P24387 whole entry): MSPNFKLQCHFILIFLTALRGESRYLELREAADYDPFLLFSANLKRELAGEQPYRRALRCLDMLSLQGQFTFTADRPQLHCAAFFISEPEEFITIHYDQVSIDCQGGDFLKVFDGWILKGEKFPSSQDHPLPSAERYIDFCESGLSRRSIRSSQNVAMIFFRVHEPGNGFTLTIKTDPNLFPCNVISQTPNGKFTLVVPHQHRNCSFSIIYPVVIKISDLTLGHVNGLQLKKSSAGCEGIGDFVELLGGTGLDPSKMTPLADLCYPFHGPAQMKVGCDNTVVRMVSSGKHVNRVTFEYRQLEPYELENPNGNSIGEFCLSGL

[14] = biological target: T3, Corticotropin-releasing factor receptor 2/Corticotropin-releasing factor-binding protein; assay: Dose Response confirmation of uHTS hits for small molecule antagonists of the CRF-binding protein and CRF-R2 receptor complex.; format: functional; settings: read-out: IC50_Mean
[15] = restored growth of temperature-sensitive Burl-1 yeast – whole organism, S. cerevisiae, Burl-1 ts mutant, luminescence, counter-screen for SUMOylation pathway inhibitor project, dose response (AID 463199); format: functional
[16] = HEK-293T viability loss, compound-treated – cell-based, uHTS hits, cytotoxicity control for B/T-cell NF-kB inhibitor project, dose response (AID 489019); format: functional;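 also: IC50 reflects cytotoxicity as loss of cell viability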
[17] = DRD fibroblast viability loss – cell-based, non-viral oncogenic, luminescence, dose response (AID 1934); format: functional; settings: Homo sapiens
BJ [18] = assay: BJ-TERT fibroblast viability loss – cell-based, RAS-independent, luminescence, dose response (AID 1933); format: functional; settings: Homo sapiens
BJ [19] = assay: cells; format: functional, cell-based; settings: Homo sapiens
HEK293 [20] = assay: HEK293T cell viability loss, resazurin readout – resazurin fluorescence, cytotoxicity control for NF-kB activator project, SAR follow-up (AID 493251); format: functional, cell-based; settings: Homo sapiens
Jurkat [21] = assay: blockers of NF-kB activation in T cells – Jurkat, luciferase reporter, luminescence, B- and T-cell, dose response (AID 489004); format: functional, cell-based; settings: Homo sapiens;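 also: NF-kB luciferase reporter Jurkat cells stimulated with PMA plus ionomycin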
Jurkat [22] = assay: SAR Analysis of small molecule inhibitors of T-cell specific antigen receptor-induced NF-kB activation in a Jurkat cell line using a luminescence assay - Set 2. [Related pubchem assays (depositor defined):AID435003, AID435012, AID465]; format: functional, cell-based; settings: Homo sapiens
HEK293 [23] = assay: SAR Analysis of small molecule inhibitors of T-cell specific antigen receptor-induced NF-kB activation in a HEK-293T cell line using a luminescence assay - Set 2. [Related pubchem assays (depositor defined):AID435003, AID435012, AID489026]; format: functional, cell-based; settings: Homo sapiens
BJ [24] = assay: BJ-TERT-LT-ST fibroblast viability loss – cell-based, RAS-independent, luminescence, dose response (AID 1935); format: functional; settings: Homo sapiens;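 also: BJ fibroblasts immortalized with TERT plus LT and ST oncogenes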
[25] = fluconazole-exposed Candida albicans growth modulators – fluorescence, retest, confirmation (AID 2467); format: functional, cell-based
[26] = NIH-3T3 fibroblast cytotoxicity, dose response, cytotoxicity control, cell-based, fluorescence, Alamar Blue, secondary assay (AID 2327); format: functional;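 also: NIH-3T3 mouse fibroblasts cultured with fluconazole at 8 µg/mL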
[27] = biological target: ATP-dependent molecular chaperone HSP82 (Candida albicans (strain WO-1) (Yeast), UniProt C4YTQ8); assay: steroid-induced GRE reporter decrease in yeast – S. cerevisiae, luminescence, Hsp90 inhibitor project, dose response (AID 2400); format: functional, cell-based;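 also: beta-galactosidase luminescence from glucocorticoid response element reporter as proxy for Hsp90 function; inhibitor potency where signal loss means Hsp90 inhibition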
[28] = biological target: Serine/threonine-protein phosphatase (Candida dubliniensis (strain CD36 / CBS 7987 / NCPF 3949 / NRRLY-17841) (Yeast), UniProt B9W6M3); assay: blockers of CaCl2-induced CDRE-lacZ signaling – S. cerevisiae, luminescence, secondary, dose response (AID 2388); format: functional, cell-based;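 also: yeast reporter cells carrying a calcineurin-responsive lacZ construct stimulated with calcium chloride; luminescent beta-galactosidase reporter signal in whole cells rather than isolated phosphatase activity; potency for inhibition where a drop in reporter signal means calcineurin blockade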
Sequence of Serine/threonine-protein phosphatase (B9W6M3 whole entry): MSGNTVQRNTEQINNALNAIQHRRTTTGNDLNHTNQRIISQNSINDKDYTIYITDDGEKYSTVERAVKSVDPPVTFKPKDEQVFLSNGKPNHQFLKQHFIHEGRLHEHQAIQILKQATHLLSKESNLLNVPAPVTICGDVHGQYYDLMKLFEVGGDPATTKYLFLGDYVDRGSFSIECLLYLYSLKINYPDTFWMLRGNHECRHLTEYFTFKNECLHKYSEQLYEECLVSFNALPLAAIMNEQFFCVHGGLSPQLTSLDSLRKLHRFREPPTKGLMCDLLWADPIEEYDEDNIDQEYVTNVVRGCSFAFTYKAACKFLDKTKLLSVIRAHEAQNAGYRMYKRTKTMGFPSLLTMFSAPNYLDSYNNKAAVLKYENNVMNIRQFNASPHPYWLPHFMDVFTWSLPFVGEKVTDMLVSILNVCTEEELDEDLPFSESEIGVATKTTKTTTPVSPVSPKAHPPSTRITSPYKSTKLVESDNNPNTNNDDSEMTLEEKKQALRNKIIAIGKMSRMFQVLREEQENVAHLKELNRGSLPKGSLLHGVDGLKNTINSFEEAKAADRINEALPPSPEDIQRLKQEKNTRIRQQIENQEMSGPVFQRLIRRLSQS

T2 sequence (P07550 whole entry): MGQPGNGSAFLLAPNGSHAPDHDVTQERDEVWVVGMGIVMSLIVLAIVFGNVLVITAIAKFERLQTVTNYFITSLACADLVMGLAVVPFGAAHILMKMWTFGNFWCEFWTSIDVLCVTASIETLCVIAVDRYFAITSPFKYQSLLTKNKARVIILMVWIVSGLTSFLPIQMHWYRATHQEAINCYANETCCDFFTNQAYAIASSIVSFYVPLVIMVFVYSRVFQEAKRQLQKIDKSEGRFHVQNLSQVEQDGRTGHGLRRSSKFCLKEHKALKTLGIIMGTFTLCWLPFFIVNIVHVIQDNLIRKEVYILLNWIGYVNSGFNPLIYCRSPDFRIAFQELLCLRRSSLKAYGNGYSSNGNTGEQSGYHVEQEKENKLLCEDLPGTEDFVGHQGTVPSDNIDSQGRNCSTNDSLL
Sequence of ATP-dependent molecular chaperone HSP82 (C4YTQ8 whole entry): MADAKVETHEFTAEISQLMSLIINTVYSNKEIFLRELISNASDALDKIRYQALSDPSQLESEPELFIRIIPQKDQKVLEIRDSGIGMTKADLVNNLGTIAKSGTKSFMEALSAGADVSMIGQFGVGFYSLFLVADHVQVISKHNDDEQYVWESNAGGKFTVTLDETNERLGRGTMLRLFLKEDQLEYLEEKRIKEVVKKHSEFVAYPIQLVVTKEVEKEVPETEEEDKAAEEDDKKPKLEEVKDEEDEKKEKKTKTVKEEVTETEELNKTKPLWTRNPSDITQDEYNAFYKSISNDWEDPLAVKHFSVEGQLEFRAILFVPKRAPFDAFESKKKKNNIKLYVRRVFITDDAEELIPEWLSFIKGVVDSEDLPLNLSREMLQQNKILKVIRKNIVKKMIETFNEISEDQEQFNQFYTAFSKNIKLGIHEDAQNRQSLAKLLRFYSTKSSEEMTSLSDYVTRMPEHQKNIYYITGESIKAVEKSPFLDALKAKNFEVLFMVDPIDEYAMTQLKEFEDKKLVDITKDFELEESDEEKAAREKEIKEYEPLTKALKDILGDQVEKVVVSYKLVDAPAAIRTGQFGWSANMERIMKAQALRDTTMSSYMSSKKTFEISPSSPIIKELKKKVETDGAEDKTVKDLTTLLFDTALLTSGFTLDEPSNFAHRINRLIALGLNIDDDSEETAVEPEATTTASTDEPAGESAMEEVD
Sequence of Neuropeptide Y receptor type 1 (P25929 whole entry): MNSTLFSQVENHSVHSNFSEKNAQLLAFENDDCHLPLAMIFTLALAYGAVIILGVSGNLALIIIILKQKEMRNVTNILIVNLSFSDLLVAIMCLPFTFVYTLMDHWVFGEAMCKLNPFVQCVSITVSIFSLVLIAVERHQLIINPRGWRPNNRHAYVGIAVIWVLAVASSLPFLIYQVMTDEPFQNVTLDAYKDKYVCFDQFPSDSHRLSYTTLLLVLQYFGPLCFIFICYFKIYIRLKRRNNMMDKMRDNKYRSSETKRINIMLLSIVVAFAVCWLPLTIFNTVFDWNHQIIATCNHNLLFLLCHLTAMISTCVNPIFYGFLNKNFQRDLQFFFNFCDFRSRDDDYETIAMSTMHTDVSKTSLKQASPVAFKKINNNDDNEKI
Sequence of DNA (cytosine-5)-methyltransferase 1 (P26358 whole entry): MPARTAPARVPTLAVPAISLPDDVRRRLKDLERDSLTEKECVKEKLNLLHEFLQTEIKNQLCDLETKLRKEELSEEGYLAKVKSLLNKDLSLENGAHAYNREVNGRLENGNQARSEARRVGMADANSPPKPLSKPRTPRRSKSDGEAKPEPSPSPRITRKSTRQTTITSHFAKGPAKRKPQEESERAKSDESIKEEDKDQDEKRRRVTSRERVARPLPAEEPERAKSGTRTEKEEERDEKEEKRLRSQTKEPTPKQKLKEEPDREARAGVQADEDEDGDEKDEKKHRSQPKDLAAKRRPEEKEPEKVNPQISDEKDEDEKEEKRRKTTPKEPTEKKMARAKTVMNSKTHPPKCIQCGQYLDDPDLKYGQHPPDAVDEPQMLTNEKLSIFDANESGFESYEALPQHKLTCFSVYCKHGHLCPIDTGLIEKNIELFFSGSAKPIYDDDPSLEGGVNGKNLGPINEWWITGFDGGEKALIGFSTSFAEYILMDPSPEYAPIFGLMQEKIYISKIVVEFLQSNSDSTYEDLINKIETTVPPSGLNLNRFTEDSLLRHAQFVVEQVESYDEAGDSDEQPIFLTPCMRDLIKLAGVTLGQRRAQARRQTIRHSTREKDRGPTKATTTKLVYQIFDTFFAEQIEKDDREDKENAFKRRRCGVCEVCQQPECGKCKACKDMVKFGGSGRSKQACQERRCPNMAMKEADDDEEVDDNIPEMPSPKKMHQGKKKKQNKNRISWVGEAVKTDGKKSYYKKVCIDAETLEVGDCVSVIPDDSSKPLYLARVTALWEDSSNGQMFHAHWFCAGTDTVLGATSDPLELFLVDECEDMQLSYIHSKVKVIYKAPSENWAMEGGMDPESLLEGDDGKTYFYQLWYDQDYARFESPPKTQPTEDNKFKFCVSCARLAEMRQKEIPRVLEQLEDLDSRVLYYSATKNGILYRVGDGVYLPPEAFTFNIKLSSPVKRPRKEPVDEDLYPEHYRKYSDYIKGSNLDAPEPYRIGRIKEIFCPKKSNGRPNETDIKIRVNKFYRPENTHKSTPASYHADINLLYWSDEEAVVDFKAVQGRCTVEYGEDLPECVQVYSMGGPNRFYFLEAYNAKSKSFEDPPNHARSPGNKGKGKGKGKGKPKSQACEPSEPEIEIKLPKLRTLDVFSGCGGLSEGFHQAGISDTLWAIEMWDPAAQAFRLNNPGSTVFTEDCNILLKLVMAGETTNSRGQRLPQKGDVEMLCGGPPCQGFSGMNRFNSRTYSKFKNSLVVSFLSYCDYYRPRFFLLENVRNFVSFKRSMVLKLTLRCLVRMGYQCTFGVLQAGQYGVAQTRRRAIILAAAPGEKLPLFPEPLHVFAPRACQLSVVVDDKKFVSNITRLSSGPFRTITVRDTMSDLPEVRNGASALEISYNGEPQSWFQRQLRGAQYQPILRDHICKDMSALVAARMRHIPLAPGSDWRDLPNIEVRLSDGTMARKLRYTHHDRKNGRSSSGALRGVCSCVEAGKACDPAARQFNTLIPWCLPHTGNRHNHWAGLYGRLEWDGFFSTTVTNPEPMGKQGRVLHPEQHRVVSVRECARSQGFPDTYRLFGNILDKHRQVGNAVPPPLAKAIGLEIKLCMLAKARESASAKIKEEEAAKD
Sequence of Neuropeptide Y receptor type 2 (P49146 whole entry): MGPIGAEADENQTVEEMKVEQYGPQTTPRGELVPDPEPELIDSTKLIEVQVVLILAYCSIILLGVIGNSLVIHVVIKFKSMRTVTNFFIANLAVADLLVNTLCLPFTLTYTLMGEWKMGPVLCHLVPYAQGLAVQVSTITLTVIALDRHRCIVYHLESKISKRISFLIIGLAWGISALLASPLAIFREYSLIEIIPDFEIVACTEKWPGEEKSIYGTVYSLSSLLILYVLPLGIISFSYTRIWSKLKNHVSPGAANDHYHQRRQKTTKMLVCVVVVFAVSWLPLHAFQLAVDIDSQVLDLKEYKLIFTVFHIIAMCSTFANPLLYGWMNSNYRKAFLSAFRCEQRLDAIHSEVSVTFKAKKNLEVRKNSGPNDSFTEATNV
Sequence of E3 ubiquitin-protein ligase UHRF1 (Q96T88 whole entry, the tested form may be a part): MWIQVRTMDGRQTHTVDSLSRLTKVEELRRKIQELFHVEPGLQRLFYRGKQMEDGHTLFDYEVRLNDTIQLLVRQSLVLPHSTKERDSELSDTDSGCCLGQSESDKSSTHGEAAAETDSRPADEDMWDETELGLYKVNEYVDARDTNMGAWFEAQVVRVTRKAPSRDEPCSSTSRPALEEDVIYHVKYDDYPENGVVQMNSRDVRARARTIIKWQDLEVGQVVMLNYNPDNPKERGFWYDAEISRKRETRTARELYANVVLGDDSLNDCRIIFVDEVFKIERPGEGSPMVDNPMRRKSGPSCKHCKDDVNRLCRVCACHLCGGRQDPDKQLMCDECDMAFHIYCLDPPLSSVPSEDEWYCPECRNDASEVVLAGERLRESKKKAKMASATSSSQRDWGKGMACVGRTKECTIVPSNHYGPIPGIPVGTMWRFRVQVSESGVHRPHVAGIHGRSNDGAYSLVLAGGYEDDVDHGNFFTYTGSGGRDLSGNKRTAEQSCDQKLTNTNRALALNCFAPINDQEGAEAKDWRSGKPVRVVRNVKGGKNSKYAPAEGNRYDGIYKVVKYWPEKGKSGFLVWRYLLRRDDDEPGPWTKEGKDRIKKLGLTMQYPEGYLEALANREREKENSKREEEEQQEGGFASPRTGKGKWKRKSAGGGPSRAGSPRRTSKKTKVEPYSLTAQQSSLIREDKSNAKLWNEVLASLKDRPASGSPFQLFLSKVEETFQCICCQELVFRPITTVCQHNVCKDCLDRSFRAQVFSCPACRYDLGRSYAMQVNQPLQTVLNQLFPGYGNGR

Compound: c1ccc2c(c1)C1=NCCN1c1ccccc1-2
IC50 [1]: 37 µM (inactive)
EC50 (HEK293 [2]): > 59.8 µM (inactive)
EC50 [3]: > 91.3 µM (inactive)
AC50 [4]: 5.19 µM (active)
IC50 [5]: 9.24 µM (active)
EC50 (HEK293 [6]): > 59.8 µM (inactive)
EC50 [7]: > 3.38 µM (active)

Compound: Clc1ccc(OCc2nnc(SCc3nc4ccccc4[nH]3)n2Cc2ccco2)cc1
EC50 [8]: > 35.4 µM (not active)
EC50 (HEK293 [9]): > 35.4 µM (not active)
EC50 [10]: 0.0069 µM (active)
EC50 [11]: 0.205 µM (active)
EC50 [12]: > 35.4 µM (not active)

EC50 [13]: > 53 µM (inactive)
IC50 [14]: > 47.1 µM (inactive)
Compound: CCCCn1c(N)c(N(Cc2ccccc2OC)C(=O)c2c(CC)noc2C)c(=O)[nH]c1=O
AC50 [15]: 61.2 µM (active)

Compound: COc1cc2nc(NC(=O)c3ccccc3)sc(=O)c2cc1OC
IC50 [16]: > 80 µM (inactive)
EC50 [17]: 79 µM (active)
EC50 (BJ [18]): 20.1 µM (active)
EC50 (BJ [19]): > 150 µM (not active)
IC50 (HEK293 [20]): > 80 µM (inactive)
IC50 (Jurkat [21]): 0.76 µM (active)
IC50 (Jurkat [22]): 0.56 µM (active)
IC50 (HEK293 [23]): 65.6 µM (inactive)
EC50 (BJ [24]): > 150 µM (inconclusive)

Compound: Oc1nc(S)nnc1Cc1ccc(Cl)c(Cl)c1
EC50 [25]: 0.241 µM (active)
EC50 [26]: > 160 µM (inactive)
EC50 [27]: > 160 µM (inactive)
EC50 [28]: > 180 µM (inactive)
